The source of these data is article PMC6309587 (Anaerobe, 2018).

Test [1] deals with C. difficile 630Δerm. The test is described as follows: Minimum inhibitory concentration. It is filed as cell-based, Clostridioides difficile. Conditions: with or without LL-37 (Supl. Table 1).
Test [2] deals with vanZ1 (CD1240) transcription in 630Δerm. The test is described as follows: vanZ1 expression by qRT-PCR during growth in antimicrobials. It is filed as cell-based, Clostridioides difficile.

Consider teicoplanin, for which the “teicoplanin MIC of 630Δerm whether or not LL-37 was present” value in test [1] is on record as “remained unchanged”.
On to `CC[C@H](C)[C@H](NC(=O)[C@H](CCCCN)NC(=O)[C@H](CCC(=O)O)NC(=O)[C@H](CCCCN)NC(=O)[C@H](CO)NC(=O)[C@H](CCCCN)NC(=O)[C@H](CCCNC(=N)N)NC(=O)[C@H](Cc1ccccc1)NC(=O)[C@H](Cc1ccccc1)NC(=O)[C@H](CC(=O)O)NC(=O)CNC(=O)[C@H](CC(C)C)NC(=O)[C@@H](N)CC(C)C)C(=O)NCC(=O)N[C@@H](CCCCN)C(=O)N[C@@H](CCC(=O)O)C(=O)N[C@@H](Cc1ccccc1)C(=O)N[C@@H](CCCCN)C(=O)N[C@@H](CCCNC(=N)N)C(=O)N[C@H](C(=O)N[C@H](C(=O)N[C@@H](CCC(N)=O)C(=O)N[C@@H](CCCNC(=N)N)C(=O)N[C@H](C(=O)N[C@@H](CCCCN)C(=O)N[C@@H](CC(=O)O)C(=O)N[C@@H](Cc1ccccc1)C(=O)N[C@@H](CC(C)C)C(=O)N[C@@H](CCCNC(=N)N)C(=O)N[C@@H](CC(N)=O)C(=O)N[C@@H](CC(C)C)C(=O)N[C@H](C(=O)N1CCC[C@H]1C(=O)N[C@@H](CCCNC(=N)N)C(=O)N[C@H](C(=O)N[C@@H](CCC(=O)O)C(=O)N[C@@H](CO)C(=O)O)[C@@H](C)O)C(C)C)[C@@H](C)CC)C(C)C)[C@@H](C)CC` [LL-37], for which the “increase of vanZ1 expression during growth in LL-37” value in test [2] was ~ 37 fold.
